A short description of series [1]: Protein binding in human serum. The series is classed as ADME, cell-free. The note with it: read-out: PB (converted).
A short description of series [2]: Protein binding in rat serum. The series is classed as ADME, cell-free.
Series [3] in a line: Protein binding in monkey serum. The series is classed as ADME, cell-free, Macaca mulatta. Conditions: rhesus monkey, read-out: PB (converted).

As for `COc1cc(-n2cnc3cc(-c4ccc(Cl)cc4)sc3c2=O)ccc1OC[C@H](O)C1CC1`, the fraction unbound in series [1] is 0.005; in series [3] it was 0.007. The compound also had a PB in series [2] of 99.8%.
